Tested on: N48K Clarin-1
Test: Restoration of expression of N48K Clarin-1 (24 hour incubation), Example 20
Type: cell-based
Settings: HEK293-Clarin-1 N48K-HA D9 cell line; 24 hr incubation with compound; HA-Clarin-1 staining per cell
Protocol: Assay Method Showing Activity of Compounds of the Invention that Restore Expression of N48K Clarin-1 (24 Hour Incubation)
Clarin-1 is the protein encoded by the gene mutated in Usher III Syndrome (Adato et al., 2002). The most prevalent mutation in Clarin-1 in North America is N48K, which is reported to cause loss of glycosylation and a trafficking defect (Tian et al., 2009). […] Thus it is believed that restoring the trafficking of N48K Clarin-1 to the cell surface provides an avenue of intervention for Usher III Syndrome. […]
The HA-tagged N48K Clarin-1 was detected with an antibody against the HA tag (HA.11 Clone 16B12 Monoclonal antibody, Covance #MMS-101P) at a dilution of 1:1000 in PBS containing Triton X-100. […] The imaging of the stained cells was performed on an InCell 1000 High Content Imager (GE Healthcare), reading out the Cy3 channel for N48K Clarin-1 and the DAPI channel for nuclei. The images were analyzed and quantitated using a specific algorithm. This algorithm measured the HA-Clarin-1 staining for each cell based on the additional nuclear segmentation of the DAPI signal (FIG. 1). This algorithm measured the intensity per cell, and thus it is less sensitive for variation in cell number. Per well, approximately 2,000 cells were measured to achieve an average density per cell measurement.

O=C(Cn1nc(-c2ccccc2)c2c(Cl)c(-c3cccc(F)c3)nnc21)N1CCCC1 [Compound 11, 2-[4-chloro-5-(3-fluorophenyl)-3-phenyl-pyrazolo[3,4-c]pyridazin-1-yl]-1-pyrrolidin-1-yl-ethanone]
IC50: < 2000 nM

— US8765762B2, “Pyrazolopyridazines and methods for treating retinal-degerative diseases and hearing loss associated with usher syndrome” (Usher III Initiative, priority 2012, dated 2014)
